Structures can show the parent of a compound that is named as a salt.
Tests used:
[1] = test system: iron-loaded Cebus apella monkeys; test: Chelator-induced iron excretion (iron-balance study) in iron-loaded Cebus apella monkeys; format: in vivo; details: s.c., 150 μmoles/Kg; for efficiency of iron chelation: mean
Procedure: After intramuscular anesthesia with ketamine, an intravenous infusion was started in a leg vein. […] Two to three infusions, separated by between 10 and 14 days, were necessary to provide about 500 mg iron per Kg body weight. […] At least twenty half-lives, sixty days, passed before using any of the animals in experiments evaluating iron-chelating agents.
Seven days before the administration of the drug, the animals were placed in metabolic cages and started on a low-iron liquid diet. The monkeys were maintained on the low-iron liquid diet for the duration of the experiment. They were given food according to their body weight, and intake was very carefully monitored.
Three days prior to drug administration, day −2 to day 0, baseline iron intake and output values were measured. This same measurement was made for day +1 to day +3. The total amount of iron intake was compared with the total amount of iron excreted.
Fecal and urine samples were collected at 24 hour intervals. The collections began four days prior to the administration of the test drug and continued for an additional five days after the drug was given. Fecal samples were assayed for the presence of occult blood, weighed, and mixed with distilled deionized water prior to autoclaving for 30 minutes. The mixture was then freeze-dried, and a known portion of the powder was mixed with low-iron nitric acid and refluxed for 24 hours. Once any particulate matter in the digested samples was removed by centrifugation, iron concentrations were determined by flame atomic absorption. Monkey urine samples were acidified and reconstituted to initial volume after sterilization, if necessary.
In the primates, DFOM was administered s.c. in sterile water for injection at a dose of 150 μmoles/Kg, while HBED was first dissolved in a phosphate buffer, ph 7.4, thus forming the mono-sodium salt and given s.c. in 40% wt./vol. Cremophor RH40 at a dose of 75 or 150 μmoles/Kg. In addition, in order to more closely mimic clinical applications in patients, mono-sodium HBED was also given to the monkeys s.c. at a dose of 150 μmoles/Kg in a phosphate buffer; no Cremophor vehicle was used.
The efficiency of each chelator was calculated on the basis of a 1:1 ligand-iron complex.
Groups of monkeys (n=6 in each group) were given s.c. injections of either DFOM or MS HBED. […] In our initial experiments, HBED monohydrochloride monohydrate was dissolved in a phosphate buffer at p.7.2 to form a solution of the MS HBED and administered in 40% wt./vol. […] HBED monohydrochloride monohydrate-Cremophor was administered by s.c. injection at doses of 75 or 150 μmoles/Kg.

[2] = test system: Cebus apella monkeys with iron overload; details: cited from earlier work
[3] = typical, background statement; cited from earlier work
Water solubility = format: physicochemical
human patients = details: oral; cited from earlier work

With `CC(=O)N(O)CCCCCNC(=O)CCC(=O)N(O)CCCCCNC(=O)CCC(=O)N(O)CCCCCN` [DFOM, desferrioxamine B mesylate] the “share of chelator-induced iron excretion in the stool” value (from here on “share … in the stool”) ([1]; aqueous solution) was “about 65%”, the “share of chelator-induced iron excretion in the urine” value (shortened to “share … in the urine”) ([1]; aqueous solution) was “about 35%” and the chelator-induced iron excretion ([1]; aqueous solution, n=6) was 435±115 μg Fe/Kg body weight. For the same compound, the “efficiency of iron chelation” value ([1]; aqueous solution) was 5.1±1.3%, the “activity in the Cebus apella monkey screen compared with oral HBED or its dimethyl ester” value ([2]; DFOM subcutaneous vs HBED or dimethyl ester oral) was “significantly higher activity” and the “share of the compound administered that binds iron” value [3] was ≤ 5%.

With `Cl.O.O=C(O)CN(CCN(CC(=O)O)Cc1ccccc1O)Cc1ccccc1O` [HBED monohydrochloride monohydrate] the water solubility (Water solubility) was “low water solubility”.

In the case of `O=C(O)CN(CCN(CC(=O)O)Cc1ccccc1O)Cc1ccccc1O` [HBED, N,N′-bis(2-hydroxybenzyl)ethylenediamine-N,N′-diacetic acid], the chelator-induced iron excretion ([2]; oral, phosphate buffer, previously published study) is listed as 50±44 μg Fe/Kg body weight, the “share … in the stool” value ([2]; oral, phosphate buffer) is listed as “about 56%” and the “share … in the urine” value ([2]; oral, phosphate buffer) is listed as “about 44%”. For the same compound, the “efficiency of iron chelation” value ([2]; oral, phosphate buffer, mean) was 0.5±0.5% and the “level of iron excretion for treatment of iron overload” value (human patients) was “ineffective”.

For `O=C([O-])CN(CCN(CC(=O)O)Cc1ccccc1O)Cc1ccccc1O.[Na+]` [MS HBED, HBED, monosodium salt], the “mean net iron excretion, phosphate buffer vs Cremophor preparation” value ([1]; P>0.2) was “no significant difference”, the “share … in the stool” value ([1]; phosphate buffer) was “about 92%” and the “share … in the urine” value ([1]; phosphate buffer) was “about 8%”. For the same compound, the “iron excretion relative to DFOM” value ([1]; phosphate buffer vs DFOM s.c. 150 μmoles/Kg, P<0.001) was “about twice”, the chelator-induced iron excretion ([1]; phosphate buffer, no Cremophor) was 899±193 μg Fe/Kg body weight and the “efficiency of iron chelation” value ([1]; phosphate buffer) was 10.7±2.3%.
